From US7501418B2, “Fused heterocyclic isoxazoline derivatives and their use as anti-depressants” (Janssen Pharmaceutica, N.V., priority 2002, dated 2009)
Counter-ions that a name gives are not always drawn. Like-named read-outs stand apart in the source and are kept apart here.

Columns and labels:
h5-HT transporter = target: T1, h5-HT transporter (Homo sapiens, UniProt P31645); test: Radioligand binding experiment for 5-HT transporter ([3H]paroxetine); details: human platelet membranes, [3H]paroxetine 0.5 nM
T1 construct: Human platelet membranes (Oceanix Biosciences Corporation, Hanover, Md., USA) were thawed; tissue Oceanix Biosciences Corporation, Hanover, Md., USA; host or cells: human platelet membranes
T1 sequence (P31645 whole entry): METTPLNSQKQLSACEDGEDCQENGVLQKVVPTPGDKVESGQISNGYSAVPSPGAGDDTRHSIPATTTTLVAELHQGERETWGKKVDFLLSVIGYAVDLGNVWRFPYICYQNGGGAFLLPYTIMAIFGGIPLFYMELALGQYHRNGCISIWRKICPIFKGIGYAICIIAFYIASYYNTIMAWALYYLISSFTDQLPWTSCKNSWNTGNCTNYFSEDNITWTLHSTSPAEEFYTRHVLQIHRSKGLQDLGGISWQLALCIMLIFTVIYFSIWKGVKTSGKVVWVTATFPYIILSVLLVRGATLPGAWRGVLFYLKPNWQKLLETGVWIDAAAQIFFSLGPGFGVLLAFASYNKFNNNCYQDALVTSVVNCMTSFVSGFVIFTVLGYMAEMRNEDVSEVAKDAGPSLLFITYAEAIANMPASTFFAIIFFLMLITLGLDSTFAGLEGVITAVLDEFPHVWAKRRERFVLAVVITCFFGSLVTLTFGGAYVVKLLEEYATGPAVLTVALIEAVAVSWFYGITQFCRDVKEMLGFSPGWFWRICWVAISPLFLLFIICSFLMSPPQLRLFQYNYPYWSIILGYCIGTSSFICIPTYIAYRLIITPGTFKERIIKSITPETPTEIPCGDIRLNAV
Procedure: In general, a low concentration of a radioligand with a high binding affinity for a particular receptor or transporter is incubated with a sample of a tissue preparation enriched in a particular receptor or transporter or with a preparation of cells expressing cloned human receptors in a buffered medium. During the incubation, the radioligand binds to the receptor or transporter. When equilibrium of binding is reached, the receptor bound radioactivity is separated from the non-bound radioactivity, and the receptor- or transporter-bound activity is counted. The interaction of the test compounds with the receptor is assessed in competition binding experiments. Various concentrations of the test compound are added to the incubation mixture containing the receptor- or transporter preparation and the radioligand. The test compound in proportion to its binding affinity and its concentration inhibits binding of the radioligand. The radioligand used for hα2A, hα2B and hα2C receptor binding was [^3H]-raulwolscine and for the h5-HT transporter was [^3H]paroxetine. Human platelet membranes (Oceanix Biosciences Corporation, Hanover, Md., USA) were thawed, diluted in buffer (Tris-HCl 50 mM, 120 mM NaCl and 5 mM KCl) and quickly (max 3 s) homogenised with an Ultraturrax homogenizer. In a total volume of 250 μL, 50-100 μg protein was incubated with [^3H]paroxetine (NET-869) (New England Nuclear, USA) (0.5 nM final concentration) with or without competitor for 60 min at 25 ° C. Incubation was stopped by rapid filtration of the incubation mixture over GF/B filters, pre-wetted with 0.1% polyethyleneamine, using a Filtermate196 harvester (Packard, Meriden, Conn.). Filters were rinsed extensively with ice-cold buffer and radioactivity on the filters was counted in a Topcount liquid scintillation counter (Packard, Meriden, Conn.). Data were expressed as cpm. Imipramine (at 1 μM final concentration) was used to determine the non-specific binding. Data from assays in the presence of compound were calculated as a percentage of total binding measured in the absence of test compound. Inhibition curves, plotting percent of total binding versus the log value of the concentration of the test compound, were automatically generated, and sigmoidal inhibition curves were fitted using non-linear regression. The pIC50 values of test compounds were derived from individual curves.

hα2C receptor = target: T2, hα2C receptor (Homo sapiens, UniProt P18825); test: Radioligand binding experiment for α2C-adrenergic receptor ([3H]-raulwolscine)
T2 construct: expressed in transfected cells
T2 sequence (P18825 1-462): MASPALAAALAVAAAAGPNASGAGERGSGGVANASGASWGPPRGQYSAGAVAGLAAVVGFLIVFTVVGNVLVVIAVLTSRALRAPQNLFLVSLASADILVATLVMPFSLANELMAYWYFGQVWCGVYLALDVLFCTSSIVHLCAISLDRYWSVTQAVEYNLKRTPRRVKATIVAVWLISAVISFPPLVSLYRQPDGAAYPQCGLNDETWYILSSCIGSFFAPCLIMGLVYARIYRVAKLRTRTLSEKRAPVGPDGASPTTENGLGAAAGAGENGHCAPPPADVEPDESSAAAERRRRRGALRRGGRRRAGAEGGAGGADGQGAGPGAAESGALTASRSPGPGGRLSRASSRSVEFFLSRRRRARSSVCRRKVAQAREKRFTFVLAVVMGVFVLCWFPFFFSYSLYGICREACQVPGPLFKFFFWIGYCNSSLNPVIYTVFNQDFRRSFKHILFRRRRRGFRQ
Procedure: (§1) In general, a low concentration of a radioligand with a high binding affinity for a particular receptor or transporter is incubated with a sample of a tissue preparation enriched in a particular receptor or transporter or with a preparation of cells expressing cloned human receptors in a buffered medium. During the incubation, the radioligand binds to the receptor or transporter. When equilibrium of binding is reached, the receptor bound radioactivity is separated from the non-bound radioactivity, and the receptor- or transporter-bound activity is counted. The interaction of the test compounds with the receptor is assessed in competition binding experiments. Various concentrations of the test compound are added to the incubation mixture containing the receptor- or transporter preparation and the radioligand. The test compound in proportion to its binding affinity and its concentration inhibits binding of the radioligand. The radioligand used for hα2A, hα2B and hα2C receptor binding was [^3H]-raulwolscine and for the h5-HT transporter was [^3H]paroxetine. CHO cells, stabile transfected with human adrenergic-α2A-, -α2B or α2C receptor cDNA, were cultured in Dulbecco's Modified Eagle's Medium (DMEM)/Nutrient mixture Ham's F12 (ratio 1:1)(Gibco, Gent-Belgium) supplemented with 10% heat inactivated fetal calf serum (Life Technologies, Merelbeke-Belgium) and antibiotics (100 IU/ml penicillin G, 100 μg/ml streptomycin sulphate, 110 μg/ml pyruvic acid and 100 μg/ml L-glutamine). One day before collection, cells were induced with 5 mM sodiumbutyrate. Upon 80-90% of confluence, cells were scraped in phosphate buffered saline without Ca^2+ and Mg^2+ and collected by centrifugation at 1500×g for 10 min. The cells were homogenised in Tris-HCl 50 mM using an Ultraturrax homogenizer and centrifuged for 10 min at 23,500×g. The pellet was washed once by resuspension and rehomogenization and the final pellet was resuspended in Tris-HCl, divided in 1 ml aliquots and stored at −70° C. Membranes were thawed and re-homogenized in incubation buffer (glycylglycine 25 mM, pH 8.0). In a total volume of 500 μl, 2-10 μg protein was incubated with [^3H]raulwolscine (NET-722) (New England Nuclear, USA) (1 nM final concentration) with or without competitor for 60 min at 25° C. followed by rapid filtration over GF/B filter using a Filtermate196 harvester (Packard, Meriden, Conn.). Filters were rinsed extensively with ice-cold rinsing buffer (Tris-HCl 50 mM pH 7.4). Filter-bound radioactivity was determined by scintillation counting in a Topcount (Packard, Meriden, Conn.) and results were expressed as counts per minute (cpm). Non-specific binding was determined in the presence of 1 μM oxymetazoline for hα2A- and hα2B receptors and 1 μM spiroxatrine for hα2C receptors. Data from assays in the presence of compound were calculated as a percentage of total binding measured in the absence of test compound. Inhibition curves, plotting percent of total binding versus the log value of the concentration of the test compound, were automatically generated, and sigmoidal inhibition curves were fitted using non-linear regression. The pIC50 values of test compounds were derived from individual curves.

hα2A receptor = target: T3, hα2A receptor (Homo sapiens, UniProt P08913); test: Radioligand binding experiment for α2A-adrenergic receptor ([3H]-raulwolscine); details: CHO cell membranes with human α2A receptor, [3H]raulwolscine 1 nM
T3 construct: expressed in transfected cells
T3 sequence (P08913 1-465): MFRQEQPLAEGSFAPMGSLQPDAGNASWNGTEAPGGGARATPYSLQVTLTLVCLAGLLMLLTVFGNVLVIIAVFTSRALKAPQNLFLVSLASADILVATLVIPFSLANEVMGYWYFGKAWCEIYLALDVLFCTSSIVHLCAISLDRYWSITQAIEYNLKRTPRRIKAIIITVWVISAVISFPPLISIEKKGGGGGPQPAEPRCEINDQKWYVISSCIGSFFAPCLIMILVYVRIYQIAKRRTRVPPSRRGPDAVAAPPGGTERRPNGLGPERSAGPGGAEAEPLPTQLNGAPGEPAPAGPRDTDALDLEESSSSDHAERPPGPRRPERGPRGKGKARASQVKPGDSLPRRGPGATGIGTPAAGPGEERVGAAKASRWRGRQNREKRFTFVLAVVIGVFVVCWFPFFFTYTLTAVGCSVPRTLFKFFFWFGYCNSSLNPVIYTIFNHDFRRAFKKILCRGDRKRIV
Procedure: as §1

hα2B receptor = target: T4, hα2B receptor (Homo sapiens, UniProt P18089); test: Radioligand binding experiment for α2B-adrenergic receptor ([3H]-raulwolscine)
T4 construct: expressed in transfected cells
T4 sequence (P18089 1-450): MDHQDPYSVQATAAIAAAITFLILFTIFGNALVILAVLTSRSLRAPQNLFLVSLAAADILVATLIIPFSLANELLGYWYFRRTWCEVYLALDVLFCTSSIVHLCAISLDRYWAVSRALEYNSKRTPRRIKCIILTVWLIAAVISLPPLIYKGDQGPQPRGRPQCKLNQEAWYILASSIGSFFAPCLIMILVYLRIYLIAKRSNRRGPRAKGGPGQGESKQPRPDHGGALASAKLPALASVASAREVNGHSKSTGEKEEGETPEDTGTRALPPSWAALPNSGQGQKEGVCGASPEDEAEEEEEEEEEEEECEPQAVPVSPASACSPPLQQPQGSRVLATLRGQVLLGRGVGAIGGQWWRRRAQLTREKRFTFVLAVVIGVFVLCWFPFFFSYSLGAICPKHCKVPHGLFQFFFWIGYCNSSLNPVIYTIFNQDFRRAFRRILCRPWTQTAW
Procedure: as §1

[1] = read-out: 5-HTT (pIC50) (converted)
[2] = CHO cell membranes with human α2C receptor, [3H]raulwolscine 1 nM, read-out: hα2C (pIC50) (converted)
[3] = read-out: hα2A (pIC50) (converted)
[4] = CHO cell membranes with human α2C receptor, [3H]raulwolscine 1 nM

Row | SMILES | IC50 (h5-HT transporter; 5-HTT (pIC50)) [nM] | IC50 (hα2A receptor; hα2A (pIC50)) [nM] | 5-HTT (pIC50) (h5-HT transporter) | hα2C (pIC50) (hα2C receptor; [4]) | hα2A (pIC50) (hα2A receptor) | other results
1 | COC(=O)Cn1ccc2cc3c(cc21)OCC1C3=NOC1CN1CCN(C/C(C)=C/c2ccccc2)CC1 (centres unmarked) [Compound 10, {3-[4-(2-methyl-3-phenyl-allyl)-piperazin-1-ylmethyl]-3a,4-dihydro-3H-2,5-dioxa-1,7-diaza-dicyclopenta[a,g]naphthlen-7-yl}-acetic acid methyl ester] | 2 | 12.6 |  |  |  | IC50 (hα2C receptor): 0.794 nM; IC50 (hα2B receptor): 5.01 nM
2 | C/C(=C\c1ccccc1)CN1CCN(CC2ON=C3c4cccnc4OCC32)CC1 (centres unmarked) [Compound 22, 3-[4-(2-methyl-3-phenyl-allyl)-piperazin-1-ylmethyl]-3a,4-dihydro-3H-2,5-dioxa-1,6-diaza-cyclopenta[a]naphthalene oxalate salt] |  |  |  |  |  | IC50 (h5-HT transporter; [1]): 6310 nM; IC50 (hα2C receptor; [2]): 79.4 nM; IC50 (hα2A receptor; [3]): 631 nM
3 | C/C(=C\c1ccccc1)CN1CCN(CC2ON=C3c4cc5ccn(CCO)c5cc4OCC32)CC1 (centres unmarked) [Compound 8] | 3.98 | 15.8 |  |  |  | IC50 (hα2C receptor; hα2C (pIC50), CHO cell membranes with human α2C receptor, [3H]raulwolscine 1 nM): 2 nM; IC50 (hα2B receptor; hα2B (pIC50), CHO cell membranes with human α2B receptor, [3H]raulwolscine 1 nM): 5.01 nM
4 | C/C(=C\c1ccccc1)CN1CCN(CC2ON=C3c4cc5ccn(C)c5cc4OCC32)CC1 (centres unmarked) [Compound 7, 7-methyl-3-[4-(2-methyl-3-phenyl-allyl)-piperazin-1-ylmethyl]-3a,4-dihydro-3H,7H-2,5-dioxa-1,7-diaza-dicyclopenta[a,g]naphthlene] | 5.01 | 3.16 |  |  |  | IC50 (hα2C receptor): 0.794 nM
5 | C/C(=C\c1cccc(F)c1)CN1CCN(CC2ON=C3c4ccncc4OCC32)CC1 (racemic) [Compound 20] |  |  | 7.6 | 8.8 | 9.2 | 
6 | C/C(=C\c1ccc(F)cc1)CN1CCN(CC2ON=C3c4ccncc4OCC32)CC1.O=C(O)C(=O)O (racemic) [Compound 21] |  |  | 7.1 | 7.8 | 8.2 | 
7 | CC(=CCN1CCN(CC2ON=C3c4cc5cc[nH]c5cc4OCC32)CC1)c1ccccc1 (racemic) [Compound 6] |  |  | 8.3 | 8.6 | 8.1 | 
8 | c1ccc2cc(CN3CCN(CC4ON=C5c6ccncc6OCC54)CC3)ccc2c1 (centres unmarked) [Compound 19, 3-(4-naphthalen-2-ylmethyl-piperazin-1-ylmethyl)-3a,4-dihydro-3H-2,5-dioxa-1,7-diaza-cyclopenta[a]naphthalene oxalate salt (1/1)] |  |  |  |  |  | IC50 (h5-HT transporter; [1]): 100 nM; IC50 (hα2C receptor; [2]): 39.8 nM; IC50 (hα2A receptor; [3]): 10 nM
9 | C/C(=C\c1ccccc1)CN1CCN(CC2ON=C3c4cc5ccn(C(=O)C6CC6)c5cc4OCC32)CC1 (racemic) [Compound 12] |  |  | 7.7 | 8.5 | 8.2 | 
10 | COCC(=O)n1ccc2cc3c(cc21)OCC1C3=NOC1CN1CCN(C/C(C)=C/c2ccccc2)CC1 (racemic) [Compound 14] |  |  | 8.4 | 8.9 | 8.5 | 
11 | Clc1ccc(CN2CCN(CC3ON=C4c5cc6cc[nH]c6cc5OCC43)CC2)cc1 (racemic) [Compound 5] |  |  | 7.8 | 7.4 | 6.7 | 
12 | COC(=O)n1ccc2cc3c(cc21)OCC1C3=NOC1CN1CCN(C/C(C)=C/c2ccccc2)CC1 (racemic) [Compound 13] |  |  | 7.9 | 8.4 | 8.4 | 
13 | CC(=O)n1ccc2cc3c(cc21)OCC1C3=NOC1CN1CCN(C/C(C)=C/c2ccccc2)CC1 (centres unmarked) [Compound 11, 1-{3-[4-(2-methyl-3-phenyl-allyl)-piperazin-1-ylmethyl]-3a,4-dihydro-3H-2,5-dioxa-1,7-diaza-dicyclopenta[a,g]naphthalen7-yl}-ethanone] | 6.31 | 2.51 |  |  |  | IC50 (hα2C receptor): 1 nM
